The text below walks through data of US11787783B2, “Heparanase inhibitors and use thereof” (Beta Therapeutics Pty Ltd, priority 2016, dated 2023).

One assay relates to RIP-OVAhi mice. The assay is described as follows: Adoptive transfer of Type 1 diabetes in transgenic RIP-OVAhi mice (acute Type 1 diabetes model). The class given is in vivo, mouse. The method, then:
FIG. 2. Treatment of RIP-OVA^hi mice from the time of adoptive transfer of OVA-specific OT-1 and activated […] tg T cells with the small molecule heparanase inhibitor BT-2012 (10 mg/kg QD, IP in saline/50% DMSO).
FIG. 3. Treatment of RIP-OVA^hi mice from the time of adoptive transfer of OVA-specific OT-1 and activated OT-II tg T cells with a control heparanase inhibitor, (denoted “BT-1055”) (10 mg/kg QD, IP in saline/20% DMSO).
In NOD mice, the autoimmune disease process develops slowly because of the asynchronous destruction of the beta cells in different islets. Indeed Type 1 diabetes develops only after >90% of the total islet beta cell mass has been destroyed. The slow course of the disease in NOD mice offers realistic potential for immune intervention but, unfortunately, high throughput screening of test drugs is not feasible. A more acute model of diabetes can be induced experimentally using RIP-OVAhi transgenic mice which express a foreign ovalbumin (OVA) peptide, under the control of the rat insulin promoter (RIP), only in islet beta cells. Following adoptive transfer of naïve OVA specific CD8+ (OT-I) and activated OVA-specific CD4+ (OT-II) transgenic T cells, the transgenic T cells traffic to the host lymph nodes where the OT-I T cells become activated and then to the OVA-expressing pancreatic islets where they rapidly induce islet beta cell destruction and diabetes, all mice succumbing to rapid onset of high blood glucose levels (hyperglycaemia) in the second week after cell transfer. […]
Using the RIP-OVAhi transgenic mice the effect of a heparanase inhibitor compound (denoted “BT-1055”) was tested for its effect on blood glucose levels. Following adoptive transfer of naïve OVA specific CD8+ (OT-I) and activated OVA-specific CD4+ (OT-II) transgenic T cells into a number of RIP-OVAhi mice blood glucose was monitored regularly over two weeks in populations of mice treated with BT-1055 and a control group administered saline (FIG. 3).

A further assay has as its target T1, heparanase (Homo sapiens, UniProt Q9Y251).
T1 sequence (Q9Y251 158-543 limits assumed): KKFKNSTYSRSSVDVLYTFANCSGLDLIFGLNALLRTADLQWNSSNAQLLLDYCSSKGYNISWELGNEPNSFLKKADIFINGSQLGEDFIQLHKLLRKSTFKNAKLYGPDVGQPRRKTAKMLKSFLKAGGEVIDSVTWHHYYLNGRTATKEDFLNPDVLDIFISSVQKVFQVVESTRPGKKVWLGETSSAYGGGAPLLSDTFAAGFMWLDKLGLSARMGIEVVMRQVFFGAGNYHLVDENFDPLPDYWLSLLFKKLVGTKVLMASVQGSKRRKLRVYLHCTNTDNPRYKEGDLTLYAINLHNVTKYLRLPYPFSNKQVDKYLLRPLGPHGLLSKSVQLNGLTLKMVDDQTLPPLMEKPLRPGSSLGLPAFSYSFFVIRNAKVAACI
T1 sequence (Q9Y251 36-109 limits assumed): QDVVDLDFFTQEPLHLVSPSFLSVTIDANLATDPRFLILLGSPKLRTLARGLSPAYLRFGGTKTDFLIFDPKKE
The assay is described as follows: Heparanase inhibition (IC50). In kind it is biochemical. The method, then:
Heparanase inhibition was determined using standard methods and the results expressed as the half maximal inhibitory concentration (IC50) being the concentration of the compound of the invention required to achieve 50% inhibition of heparanase.

Assay [1] has as its system db/db mice. The assay is described as follows: Intra-islet heparan sulfate content in db/db mice, Alcian blue staining. The class given is in vivo, mouse. To be noted: 50 mg/kg daily intraperitoneal injection, versus saline treated db/db and wild-type mice. On the procedure: FIG. 6. Intra-islet HS content in pancreas sections in treated db/db mice. Mice were treated daily with 50 mg/kg PI-88 IP from 4 weeks of age. Onset of clinical diabetes was determined by measuring urine glucose twice weekly with Multistix reagent strips and confirmed by measuring non-fasting blood glucose levels in tail vein blood using a MediSense glucometer with hyperglycemia defined as 2 consecutive blood glucose readings of 16 mmol/I or greater. Islet HS was detected by Alcian blue staining.
db/db mice were treated with saline or 50 mg/kg of PI-88 daily by intraperitoneal injection. At the cessation of treatment pancreatic islets were isolated and stained with alcian blue to visualise heparan sulfate and the heparan sulfate content of the islets was assessed by quantitative morphometric analyses.

Assay [2] relates to db/db mice. The assay is described as follows: Insulin content in pancreas sections/islets of db/db mice (Type 2 diabetes model), anti-insulin antibody staining. The class given is in vivo, mouse. To be noted: 50 mg/kg daily intraperitoneal injection, versus saline treated db/db and wild-type mice. The method, then:
FIG. 5. Insulin content in pancreas sections in db/db mice a model of Type 2 diabetes. Mice were treated daily with 50 mg/kg PI-88 IP from 4 weeks of age. Onset of clinical diabetes was determined by measuring urine glucose twice weekly with Multistix reagent strips and confirmed by measuring non-fasting blood glucose levels in tail vein blood using a MediSense glucometer with hyperglycemia defined as 2 consecutive blood glucose readings of 16 mmol/I or greater. Insulin was detected by anti-insulin antibody staining.
The db/db mouse has defective leptin signalling resulting from a point mutation in the leptin receptor gene. Plasma insulin levels become elevated very early in life (10-14 days of age), and the affected animals are obese by the time they are 3-4 weeks old. The animals are insulin resistant, hypertriglyceridemic, and have impaired glucose tolerance.
db/db mice were treated with saline or 50 mg/kg of PI-88 by daily intraperitoneal injection. At the cessation of treatment pancreatic islets were isolated and stained for insulin and the level of insulin expression assessed by quantitative morphometric analyses.

The mark [3] stands for this setting: read-out: Heparanase inhibition IC50.

Where two headings read alike, the source gives them in different places.

With `COc1cc2[nH]c(=S)n(CCc3c[nH]c4ccccc34)c(=N)c2cc1OC` [BT2012], the “Individual treated mice in which blood glucose remained normal” value in the assay on RIP-OVAhi mice (10 mg/kg QD, IP, 14 day assay period) is 50%. Moreover, in the assay on RIP-OVAhi mice (10 mg/kg QD, IP, from the time of adoptive transfer of OT-I and activated OT-II tg T cells), the “Incidence of diabetes (blood glucose >12 mmol) reduced” value is reported as 50%. Also, in the assay on RIP-OVAhi mice (10 mg/kg, by 14 days after transfer), the “Protection from Type 1 diabetes induction following adoptive transfer of diabetogenic tg T cells” value is given as “protected RIPOVAhi mice from Type 1 diabetes induction”. The IC50 on heparanase (setting [3]) is 14.8 µM.
Consider `COc1ccc2[nH]c(=S)n(CCc3c[nH]c4ccccc34)c(=N)c2c1` [BT2014], for which, on heparanase (setting [3]), the IC50 stood at 49.3 µM.
Still for that read-out and setting: in the case of `COc1ccc(OC)c(Cn2c(=S)[nH]c3cc(OC)c(OC)cc3c2=N)c1` [BT2022] it was 37.2 µM; in that of `COc1cc2[nH]c(=S)n(CCc3cn(C)c4ccccc34)c(=N)c2cc1OC` [BT2024], 27.4 µM.
The same measure, in the same setting: for `COc1ccc(Cn2c(=S)[nH]c3cc(OC)c(OC)cc3c2=N)c(OC)c1` [BT2027] the value was 40.1 µM; for `COc1cc2[nH]c(=S)n(CCc3c[nH]c4ccccc34)c(=N)c2cc1OC` [BT2044], 30 µM.
Still for that read-out and setting: in the case of `COc1ccc2[nH]cc(CCn3c(=S)[nH]c4cc(OC)c(OC)cc4c3=N)c2c1` [BT2046] it was 9.4 µM; in that of `COc1cc2[nH]c(=S)n(CCc3c[nH]c4ccc(-c5cccnc5)cc34)c(=N)c2cc1OC` [BT2055], 19.1 µM.
In the case of `COc1cc2[nH]c(=S)n(CCNC(=O)c3cc4ccc(-c5ccc(C(=O)N6CCN(C)CC6)cc5)cc4[nH]3)c(=N)c2cc1OC` [BT2073], the IC50 on heparanase (setting [3]) worked out at 51 µM.
Consider `COc1cc2[nH]c(=S)n(CCNC(=O)c3cc4cc(-c5ccc(N6CCN(C)CC6)nc5)ccc4[nH]3)c(=N)c2cc1OC` [BT2075], for which the IC50 at heparanase (setting [3]) is 20.6 µM.
Same read-out and setting: in the case of `COc1cc2[nH]c(=S)n(CCNC(=O)c3cc4ccc(-c5ccc(N6CCN(C)CC6)nc5)cc4[nH]3)c(=N)c2cc1OC` [BT2076] it was 12.4 µM.
On the same count and under the same terms, in the case of `COc1cc2[nH]c(=S)n(CCNC(=O)c3cc4cc(-c5cnn(C)c5)ccc4[nH]3)c(=N)c2cc1OC` [BT2078] it was 34.8 µM.
The same measure, in the same setting: in the case of `COc1cc2[nH]c(=O)n(CCNC(=O)c3cc4cc(C(=O)N5CCC5)ccc4[nH]3)c(=N)c2cc1OC` [BT2080] it was 90.4 µM; in that of `COc1cc2[nH]c(=O)n(CCNC(=O)c3cc4cc(C(=O)N5CCOCC5)ccc4[nH]3)c(=N)c2cc1OC` [BT2081], 90.4 µM.
Take `COc1cc2[nH]c(=S)n(CCNC(=O)c3cc4cc(C(=O)N5CCOCC5)ccc4[nH]3)c(=N)c2cc1OC` [BT2082]: the IC50 on heparanase (setting [3]) is 35 µM.
`COc1cc2[nH]c(=S)n(C3CN(C(=O)c4cc5cc(-c6cccnc6)ccc5[nH]4)C3)c(=N)c2cc1OC` [BT2085]: at heparanase (setting [3]), the IC50 is 1.3 µM.
In turn, `COc1cc2[nH]c(=S)n(CCn3cc(C(=O)NCCN4CCOCC4)c4ccccc43)c(=N)c2cc1OC` [BT2104] displayed an IC50 against heparanase (Heparanase inhibition IC50) of 44.8 µM.
In the case of `COc1cc2[nH]c(=S)n(CCNC(=O)c3cccc(-c4ccccc4)n3)c(=N)c2cc1OC` [BT2115], the IC50 on heparanase (setting [3]) was determined as 19.7 µM.
On the same count and under the same terms, in the case of `COc1cc2[nH]c(=S)n(CCNC(=O)c3cccc(-c4ccc(C(=O)N5CCN(C)CC5)cc4)n3)c(=N)c2cc1OC` [BT2116] it was 12.8 µM; in that of `COc1cc2[nH]c(=S)n(CCNC(=O)c3cccc(-c4ccc5nonc5c4)n3)c(=N)c2cc1OC` [BT2117], 12.5 µM; in that of `COc1cc2[nH]c(=S)n(CCNC(=O)c3ccc(-c4ccccc4)nc3)c(=N)c2cc1OC` [BT2125], 15.6 µM.
On the same count and under the same terms, in the case of `COc1cc2[nH]c(=S)n(CCNC(=O)c3nnc(-c4ccccc4)o3)c(=N)c2cc1OC` [BT2132] it was 58.6 µM; in that of `COc1cc2nc(SCc3ccccc3)n(CCNC(=O)c3cc4ccccc4[nH]3)c(=N)c2cc1OC` [BT2135], 64 µM.
On the same count and under the same terms, in the case of `COc1cc2nc(SCc3ccc(C(F)(F)F)cc3)n(C3CN(C(=O)c4cc5ccc(-c6cccnc6)cc5[nH]4)C3)c(=N)c2cc1OC` [BT2139] it was 13 µM; in that of `COc1cc2nc(SCc3ccc(C(F)(F)F)cc3)n(C3CN(C(=O)c4cc5ccc(-c6cccnc6)cc5[nH]4)C3)c(=N)c2cc1OC` [BT2140], 37.5 µM; in that of `COc1cc2nc(SC)n(C3CN(C(=O)c4cc5ccc(-c6cccnc6)cc5[nH]4)C3)c(=N)c2cc1OC` [BT2141], 23.6 µM.
As to `COc1cc2nc(SCc3ccc(OC(F)(F)F)cc3)n(C3CN(C(=O)c4cc5ccc(-c6cccnc6)cc5[nH]4)C3)c(=N)c2cc1OC` [BT2142], the IC50 at heparanase (setting [3]) was found to be 7 µM.
The same measure, in the same setting: for `COc1cc2nc(SC)n(C3CN(C(=O)c4cc5ccc(-c6cccnc6)cc5[nH]4)C3)c(=N)c2cc1OC` [BT2143] the value was 33 µM; for `COc1cc2[nH]c(=S)n(CCNC(=O)c3nnc(-c4ccccc4)o3)c(=N)c2cc1OC` [BT2144], 59.9 µM; for `COc1cc2nc(SCc3ccc(OC(F)(F)F)cc3)n(C3CN(C(=O)c4cc5ccc(-c6cccnc6)cc5[nH]4)C3)c(=N)c2cc1OC` [BT2145], 22 µM.
Turning to PI-88, the “Islet heparan sulfate levels (quantitative morphometric analyses)” value in the assay with db/db mice [1] was “increased compared to the saline treated db/db mice and are near to the levels of heparan sulfate in the islets of wild-type mice”. The “Expression of insulin in islets (quantitative morphometric analyses)” value with db/db mice [2] is “increased compared to the saline treated db/db mice and is near to the level of insulin expression in the wild-type mice”.
